# Data as given in patent US20230382925A1, “MODULATORS OF CYSTIC FIBROSIS TRANSMEMBRANE CONDUCTANCE REGULATOR” (VERTEX PHARMACEUTICALS INCORPORATED, priority 2020, published 2023).
# Read-outs that look alike come from different tables or passages of the source.
# How the values were obtained:
# CFTR [1] = molecular target: T1, CFTR (Homo sapiens, UniProt P13569); assay: Membrane Potential Dye, Enteroid Assay A; type: cell-based; settings: for EC50: read-out: Ent. A EC50
# Method in brief: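 Primary human intestinal enteroid cells exposed to compound for 18–24 hours at 37 °C, then loaded 25 min with methyl oxonol membrane potential dye plus CaCC inhibitors. Chloride transport triggered in chloride-free buffer with 10 μM forskolin, 100 μM IBMX and 300 nM Compound III, fluorescence read 15 min; % Activity relative to a triple-combination corrector/potentiator control.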
# [2] = amide bond, 13-membered ring, DMF
# CFTR [3] = molecular target: T1, CFTR; assay: Membrane Potential Dye, Enteroid Assay B; type: cell-based
# Method in brief: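 Activity given as % of a triple-combination reference (1 μM and 3 μM correctors, 300 nM acute potentiator). Enteroids were preincubated 18-24 h with compound; chloride efflux then measured 15 min by methyl oxonol fluorescence after forskolin/IBMX/Compound III stimulation in chloride-free buffer containing CaCCinh-A01 and Chicago Sky Blue.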
# [4] = Table 10, read-out: Ent. B EC50
# T1 sequence (P13569 with tags, fused parts or gaps DEL508-508): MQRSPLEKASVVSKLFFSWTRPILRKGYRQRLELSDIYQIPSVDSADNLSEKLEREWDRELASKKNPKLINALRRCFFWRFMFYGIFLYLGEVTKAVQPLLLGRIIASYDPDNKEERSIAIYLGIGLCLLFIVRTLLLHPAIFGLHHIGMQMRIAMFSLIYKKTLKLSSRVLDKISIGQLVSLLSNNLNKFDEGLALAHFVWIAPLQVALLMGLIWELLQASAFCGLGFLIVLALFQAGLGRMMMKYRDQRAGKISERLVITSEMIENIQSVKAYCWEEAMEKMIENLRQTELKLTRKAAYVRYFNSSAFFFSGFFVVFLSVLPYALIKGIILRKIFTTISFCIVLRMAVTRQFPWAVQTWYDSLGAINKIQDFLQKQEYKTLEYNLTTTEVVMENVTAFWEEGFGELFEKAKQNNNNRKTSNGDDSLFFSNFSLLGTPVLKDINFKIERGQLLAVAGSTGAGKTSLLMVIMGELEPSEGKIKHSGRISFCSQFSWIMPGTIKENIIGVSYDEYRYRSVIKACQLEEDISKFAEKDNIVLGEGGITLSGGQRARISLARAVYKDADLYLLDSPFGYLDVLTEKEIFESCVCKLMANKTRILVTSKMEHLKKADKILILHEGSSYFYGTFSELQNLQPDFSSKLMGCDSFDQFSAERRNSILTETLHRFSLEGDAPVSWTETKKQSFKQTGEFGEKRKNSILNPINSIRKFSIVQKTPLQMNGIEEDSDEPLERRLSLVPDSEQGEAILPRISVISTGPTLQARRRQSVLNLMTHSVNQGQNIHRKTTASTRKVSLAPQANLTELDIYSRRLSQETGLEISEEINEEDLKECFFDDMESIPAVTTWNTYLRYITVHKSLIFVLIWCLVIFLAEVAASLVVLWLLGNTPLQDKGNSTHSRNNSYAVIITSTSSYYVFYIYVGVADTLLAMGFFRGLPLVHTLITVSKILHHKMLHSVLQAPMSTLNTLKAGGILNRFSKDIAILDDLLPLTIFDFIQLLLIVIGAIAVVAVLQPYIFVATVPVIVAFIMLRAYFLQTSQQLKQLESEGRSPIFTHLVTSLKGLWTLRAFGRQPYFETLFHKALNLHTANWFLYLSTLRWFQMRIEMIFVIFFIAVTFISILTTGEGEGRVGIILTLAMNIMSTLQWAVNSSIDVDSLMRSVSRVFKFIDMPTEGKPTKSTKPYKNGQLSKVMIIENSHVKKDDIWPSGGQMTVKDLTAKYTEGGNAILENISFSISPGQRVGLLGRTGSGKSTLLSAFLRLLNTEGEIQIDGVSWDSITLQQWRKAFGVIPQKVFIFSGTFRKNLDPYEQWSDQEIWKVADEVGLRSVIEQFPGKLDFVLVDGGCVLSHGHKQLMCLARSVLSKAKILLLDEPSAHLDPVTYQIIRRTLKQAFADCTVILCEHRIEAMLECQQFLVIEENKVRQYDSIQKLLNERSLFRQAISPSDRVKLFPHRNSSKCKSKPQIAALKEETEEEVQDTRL
smiles,measurement,setting,value
"Cc1cccc(C)c1-c1cc2nc(n1)NS(=O)(=O)c1cccc(c1)C(=O)N(C1CC3(CC3)C1)[C@H](CC1CCCCC1)[C@@H](C1CC1)O2 [Compound 1, (10R,11R)-11-(Cyclohexylmethyl)-10-cyclopropyl-6-(2,6-dimethylphenyl)-2,2-dioxo-12-spiro[2.3]hexan-5-yl-9-oxa-2λ^6-thia-3,5,12,19-tetrazatricyclo[12.3.1.14,8]nonadeca-1(18),4(19),5,7,14,16-hexaen-13-one]",Ent. A Max Activity (%),CFTR [1],+++ (+++ is >60%)
same,EC50,CFTR [1],< 1000 nM
same,"ring closure, yield after HPLC","[2]; from Cc1cccc(C)c1-c1cc(O[C@H](C2CC2)[C@@H](CC2CCCCC2)NC2CC3(CC3)C2)nc(NS(=O)(=O)c2cccc(C(=O)O)c2)n1, COMU/TEA, 10.8 mM, 25.0 °C, 1.0 h",31%
"Cc1cccc(C)c1-c1cc2nc(n1)NS(=O)(=O)c1cccc(c1)C(=O)N(C1CC3(CC3)C1)[C@H](CCC(C)C)CO2 [Compound 3, (11R)-6-(2,6-Dimethylphenyl)-11-isopentyl-2,2-dioxo-12-spiro[2.3]hexan-5-yl-9-oxa-2λ^6-thia-3,5,12,19-tetrazatricyclo[12.3.1.14,8]nonadeca-1(18),4(19),5,7,14,16-hexaen-13-one]",Ent. A Max Activity (%),CFTR [1],++ (++ is 30-60%)
same,EC50,CFTR [1],< 1000 nM
same,"ring closure, yield after HPLC","[2]; from Cc1cccc(C)c1-c1cc(OC[C@@H](CCC(C)C)NC2CC3(CC3)C2)nc(NS(=O)(=O)c2cccc(C(=O)O)c2)n1, HATU/DIEA, 25.0 °C, 3.0 h, 2 steps",8%
"Cc1cccc(C)c1-c1cc2nc(n1)NS(=O)(=O)c1cccc(c1)C(=O)N(C1CC(C)(C)C1)[C@H](CC(C)C)CO2 [Compound 28, (11R)-12-(3,3-Dimethylcyclobutyl)-6-(2,6-dimethylphenyl)-11-isobutyl-2,2-dioxo-9-oxa-2λ^6-thia-3,5,12,19-tetrazatricyclo[12.3.1.14,8]nonadeca-1(18),4(19),5,7,14,16-hexaen-13-one]",Ent. A Max Activity (%),CFTR [1],+++ (+++ is >60%)
same,EC50,CFTR [1],< 1000 nM
same,"ring closure, yield after HPLC","[2]; from Cc1cccc(C)c1-c1cc(OC[C@@H](CC(C)C)NC2CC(C)(C)C2)nc(NS(=O)(=O)c2cccc(C(=O)O)c2)n1, HATU/DIEA, 18.9 mM, 25.0 °C, 2.0 h",60%
"Cc1cccc(C)c1-c1cc2nc(n1)NS(=O)(=O)c1cccc(c1)C(=O)N(C1CC3(CCOCC3)C1)[C@H](CC(C)C)CO2 [Compound 31, (11R)-6-(2,6-Dimethylphenyl)-11-isobutyl-12-(7-oxaspiro[3.5]nonan-2-yl)-2,2-dioxo-9-oxa-2λ^6-thia-3,5,12,19-tetrazatricyclo[12.3.1.14,8]nonadeca-1(18),4(19),5,7,14,16-hexaen-13-one]",Ent. A Max Activity (%),CFTR [1],+++ (+++ is >60%)
same,EC50,CFTR [1],< 1000 nM
same,"ring closure, yield after HPLC","[2]; from Cc1cccc(C)c1-c1cc(OC[C@@H](CC(C)C)NC2CC3(CCOCC3)C2)nc(NS(=O)(=O)c2cccc(C(=O)O)c2)n1, HATU/DIEA, 25.0 °C, 2.0 h, 2 steps",28%
"Cc1cccc(C)c1-c1cc2nc(n1)NS(=O)(=O)c1cccc(c1)C(=O)N(C1CC3(CCC3)C1)[C@H](CC(C)C)CO2 [Compound 32, (11R)-6-(2,6-dimethylphenyl)-11-isobutyl-2,2-dioxo-12-spiro[3.3]heptan-2-yl-9-oxa-2λ^6-thia-3,5,12,19-tetrazatricyclo[12.3.1.14,8]nonadeca-1(18),4(19),5,7,14,16-hexaen-13-one]",Ent. A Max Activity (%),CFTR [1],++ (++ is 30-60%)
same,EC50,CFTR [1],< 1000 nM
same,"ring closure, yield after HPLC","[2]; from Cc1cccc(C)c1-c1cc(OC[C@@H](CC(C)C)NC2CC3(CCC3)C2)nc(NS(=O)(=O)c2cccc(C(=O)O)c2)n1, HATU/DIEA, 25.0 °C, 2.0 h, 2 steps",44%
"Cc1cccc(C)c1-c1cc2nc(n1)NS(=O)(=O)c1cccc(c1)C(=O)N(C1CC(OC(C)C)C1)[C@H](CC(C)C)CO2 (stereo partly drawn) [Compound 47, (11R)-6-(2,6-Dimethylphenyl)-11-isobutyl-12-(3-isopropoxycyclobutyl)-2,2-dioxo-9-oxa-2λ^6-thia-3,5,12,19-tetrazatricyclo[12.3.1.14,8]nonadeca-1(18),4(19),5,7,14,16-hexaen-13-one]","ring closure, yield after HPLC","[2]; from Cc1cccc(C)c1-c1cc(OC[C@@H](CC(C)C)NC2CC(OC(C)C)C2)nc(NS(=O)(=O)c2cccc(C(=O)O)c2)n1, HATU/Et3N, 59.2 mM, 2.0 h",53%
same,Ent. B Max Activity (%),CFTR [3]; Table 9,+++ (+++ is >60%)
same,EC50,"CFTR [3]; Table 9, read-out: Ent. B EC50",< 1000 nM
"Cc1cccc(C)c1-c1cc2nc(n1)NS(=O)(=O)c1cncc(n1)C(=O)N(C1CC3(CC3)C1)[C@H](CC(C)C)CO2 [Compound 62, (11R)-6-(2,6-Dimethylphenyl)-11-isobutyl-2,2-dioxo-12-spiro[2.3]hexan-5-yl-9-oxa-2λ^6-thia-3,5,12,16,18,19-hexazatricyclo[12.3.1.14,8]nonadeca-1(18),4(19),5,7,14,16-hexaen-13-one]","ring closure, yield after HPLC","[2]; from Cc1cccc(C)c1-c1cc(OC[C@@H](CC(C)C)NC2CC3(CC3)C2)nc(NS(=O)(=O)c2cncc(C(=O)O)n2)n1, HATU/DIEA, 15.2 mM, 12.0 h",65%
same,Ent. B Max Activity (%),CFTR [3],+++ (+++ is >60%)
same,EC50,CFTR [3]; read-out: Ent. B EC50,< 1000 nM
"Cc1cccc(C)c1-c1cc2nc(n1)NS(=O)(=O)c1cc(n(C)n1)C(=O)N(C1CC3(CC3)C1)[C@H](CC(C)C)CO2 [Compound 74, (10R)-15-(2,6-Dimethylphenyl)-10-isobutyl-6-methyl-3,3-dioxo-9-spiro[2.3]hexan-5-yl-12-oxa-3λ^6-thia-2,5,6,9,16,17-hexazatricyclo[11.3.1.14,7]octadeca-1(17),4,7(18),13,15-pentaen-8-one]","ring closure, yield after HPLC","[2]; from Cc1cccc(C)c1-c1cc(OC[C@@H](CC(C)C)NC2CC3(CC3)C2)nc(NS(=O)(=O)c2cc(C(=O)O)n(C)n2)n1, HATU/DIPEA, 4.9 mM, 6.0 h, 2 steps",10%
same,Ent. B Max Activity (%),CFTR [3]; Table 9,+++ (+++ is >60%)
same,EC50,"CFTR [3]; Table 9, read-out: Ent. B EC50",< 1000 nM
"COCCn1cc(N2C(=O)c3cccc(c3)S(=O)(=O)Nc3nc(cc(-c4c(C)cccc4C)n3)OC[C@H]2CC(C)C)cn1 [Compound 98, (11R)-6-(2,6-Dimethylphenyl)-11-isobutyl-12-[1-(2-methoxyethyl)pyrazol-4-yl]-2,2-dioxo-9-oxa-2λ^6-thia-3,5,12,19-tetrazatricyclo[12.3.1.14,8]nonadeca-1(18),4(19),5,7,14,16-hexaen-13-one]","ring closure, yield after HPLC","[2]; from COCCn1cc(N[C@@H](COc2cc(-c3c(C)cccc3C)nc(NS(=O)(=O)c3cccc(C(=O)O)c3)n2)CC(C)C)cn1, CDMT/NMM, 48.0 h, 2 steps",9%
same,Ent. B Max Activity (%),CFTR [3]; Table 10,+++ (+++ is >60%)
same,EC50,CFTR [3]; [4],< 1000 nM
"Cc1cccc(C)c1-c1cc2nc(n1)NS(=O)(=O)c1cccc(c1)C(=O)N(C1CC3(CC3)C1)C[C@@H](C)O2 [Compound 180, (10R)-6-(2,6-Dimethylphenyl)-10-methyl-2,2-dioxo-12-spiro[2.3]hexan-5-yl-9-oxa-2λ^6-thia-3,5,12,19-tetrazatricyclo[12.3.1.14,8]nonadeca-1(18),4(19),5,7,14,16-hexaen-13-one]","ring closure, yield after HPLC","[2]; from Cc1cccc(C)c1-c1cc(O[C@H](C)CNC2CC3(CC3)C2)nc(NS(=O)(=O)c2cccc(C(=O)O)c2)n1, HATU/DIEA, 7.3 mM, 1.0 h, 2 steps",6%
same,Ent. B Max Activity (%),CFTR [3],+++ (+++ is >60%)
same,EC50,CFTR [3]; read-out: Ent. B EC50,< 1000 nM
"Cc1cccc(C)c1-c1cc2nc(n1)NS(=O)(=O)c1cccc(c1)C(=O)N(C1Cc3ccccc3C1)[C@H](CC(C)(C)C)CO2 [Compound 183, (11R)-6-(2,6-Dimethylphenyl)-11-(2,2-dimethylpropyl)-12-indan-2-yl-2,2-dioxo-9-oxa-2λ^6-thia-3,5,12,19-tetrazatricyclo[12.3.1.14,8]nonadeca-1(18),4(19),5,7,14,16-hexaen-13-one]","ring closure, yield after HPLC","[2]; from Cc1cccc(C)c1-c1cc(OC[C@@H](CC(C)(C)C)NC2Cc3ccccc3C2)nc(NS(=O)(=O)c2cccc(C(=O)O)c2)n1, CDMT/NMM, 25.7 mM, 24.0 h",13%
same,Ent. B Max Activity (%),CFTR [3]; Table 10,+++ (+++ is >60%)
same,EC50,CFTR [3]; [4],< 1000 nM
"Cc1cccc(C)c1-c1cc2nc(n1)NS(=O)(=O)c1cccc(c1)C(=O)N(c1cnn(C(C)(C)C)c1)[C@H](CC(C)(C)C)CO2 [Compound 184, (11R)-12-(1-tert-Butylpyrazol-4-yl)-6-(2,6-dimethylphenyl)-11-(2,2-dimethylpropyl)-2,2-dioxo-9-oxa-2λ^6-thia-3,5,12,19-tetrazatricyclo[12.3.1.14,8]nonadeca-1(18),4(19),5,7,14,16-hexaen-13-one]","ring closure, yield after HPLC","[2]; from Cc1cccc(C)c1-c1cc(OC[C@@H](CC(C)(C)C)Nc2cnn(C(C)(C)C)c2)nc(NS(=O)(=O)c2cccc(C(=O)O)c2)n1, CDMT/NMM, 24.9 mM, 48.0 h, 2 steps",7%
same,Ent. B Max Activity (%),CFTR [3]; Table 10,+++ (+++ is >60%)
same,EC50,CFTR [3]; [4],< 1000 nM
"Cc1cccc(C)c1-c1cc2cc(n1)NS(=O)(=O)c1cccc(n1)C(=O)N(C1CC3(CC3)C1)[C@H](CC(C)C)CO2 [Compound 197, (11R)-6-(2,6-Dimethylphenyl)-11-isobutyl-2,2-dioxo-12-spiro[2.3]hexan-5-yl-9-oxa-2λ^6-thia-3,5,12,18-tetrazatricyclo[12.3.1.14,8]nonadeca-1(18),4(19),5,7,14,16-hexaen-13-one]","ring closure, yield after HPLC","[2]; from Cc1cccc(C)c1-c1cc(OC[C@@H](CC(C)C)NC2CC3(CC3)C2)cc(NS(=O)(=O)c2cccc(C(=O)O)n2)n1, HATU/DIEA, 27.1 mM, 2.0 h",59%
same,Ent. B Max Activity (%),CFTR [3],+++ (+++ is >60%)
same,EC50,CFTR [3]; read-out: Ent. B EC50,< 1000 nM
